# PMC11510156, “Rutin and Physalis peruviana Extract: Population Pharmacokinetics in New Zealand Rabbits” (Pharmaceutics, 2024)
# Columns and labels:
# [1] = set-up: method as in PMID 32162346; settings: low solubility and low permeability; cited from earlier work
# [2] = set-up: method as in PMID 33921404; settings: rutin; popPK, Wistar rats; cited from earlier work
# [3] = Simple allometry prediction of human V and Cl of rutin; set-up: species or system humans
# Description: Individual pharmacokinetics parameters estimated by PopPK analysis in this study, along with those from a previous study conducted by the group in Wistar rats, were used to extrapolate V and Cl to humans using the simple allometry Equation (6):(6) Y=a×W^b, where Y is the PK parameter in humans, W is the human weight, typically set at 70 kg, and a and b are the coefficient and the exponent of scaling, respectively. These last two values are obtained from the relationship between the PK parameter and body weight across different species. Theoretically, b is fixed to 0.75 for Cl and 1.0 for Vd, although it can vary depending on the drug and population under study.
# [4] = Noncompartmental PK of rutin after intravenous administration of pure rutin or P. peruviana extract; assay type: in vivo, New Zealand White rabbits
# Procedure: (§1) Twenty male New Zealand White rabbits were obtained from Sentagro E.A.T (Cachipay, Cundinamarca, Colombia), who certificated their origin and traceability. The animals were between 9 and 10 weeks old, weighing between 1.8 and 2.2 kg. They were allowed to acclimate for at least 5 days under constant temperature conditions (22 ± 1 °C), with light/dark cycles of 12 h, at the animal facility of the Department of Pharmacy of the Universidad Nacional de Colombia (UNAL), where the experiments were conducted. They were provided with water and food ad libitum until 12 h prior to the experiment, when they were fasted. The study protocol was approved by the ethics committee of the science faculty of the UNAL (Act 06, 2015, project 40831, 22 June 2015).
# (§2) Rabbits were divided into four groups to receive either pure rutin or P. peruviana extract intravenously (i.v.) or orally (p.o.). The dose of rutin i.v. was set at 0.37 mg/kg, based on the highest quantity of the compound able to dissolve in 1 mL of the diluent used. The dose of extract i.v. was 100 mg/kg, a reference dose for animal experimentation in our group, which also allowed the solubilization of rutin in the extract within the administration volume. Oral rutin was administrated at a dose of 100 mg/kg, and oral extract was administrated at a dose of 500 mg/kg, which is an active dose from prior experiments. Based on the rutin content in the extract, the doses of extract used were equivalent to 1.48 mg/kg and 7.4 mg/kg of rutin for the i.v. and p.o. experiments, respectively.
# (§3) For intravenous administration, solutions of rutin in sodium chloride solution (0.9% NaCl) were prepared at a concentration of 0.74 mg/mL, using DMSO (<0.1% of the final volume) to dissolve the compound. Meanwhile, the extract was directly dissolved in 0.9% NaCl at a concentration of 200 mg/mL. For oral administration, pure rutin and the extract were suspended in water near the time of the experiment to achieve concentrations in suspension of 200 and 1000 mg/mL, respectively. Vortexing and sonication were applied 3–4 times for 15 min each to all preparations. Each animal received 0.5 mL/kg of the treatment via the marginal ear vein (i.v.) or by oral gavage (p.o.).
# (§4) Samples of blood (approximately 250 µL) were withdrawn from the marginal ear vein and collected in heparinized tubes at various time points. For experiments with i.v. administration, sampling was conducted at times 0, 0.083, 0.166, 0.333, 0.5, 0.75, 1, 1.5, 2, 3, 4, 6, 8, 12, and 24 h. For experiments with p.o. administration, sampling was performed at times 0, 0.083, 0.25, […], 0.75, 1, 2, 3, 4, 6, 8, 12, 24, and 48 h (Figure 1). The blood samples were then centrifuged at 3200× g and at 4 °C for 15 min to separate plasma, which was transferred to a new tube. The plasma was promptly acidified to pH 4 using 0.5 µL of 42.5% formic acid and then frozen at −80 °C until further analysis.
# (§5) The quantification of analytes was carried out using a validated UHPLC-UV method on a Chromaster RS chromatograph (Hitachi, Tokyo, Japan). Briefly, plasma samples (100 µL) were supplemented with the internal standard, chrysin (1000 ng/mL), and divided into two tubes. One tube was immediately extracted and injected into the chromatographic system to quantify rutin. The plasma in the other tube first underwent a deconjugation reaction with 120 Fishman units of a mixture of the enzymes β-glucuronidase/arylsulfatase at pH 5.5 and 37 °C for 30 min. The product of the reaction, Quer, was also quantified, representing rutin metabolites Q3OG and Q3OS. The analytes in the plasma samples, rutin and Quer, were extracted using the protein precipitation method with twice the volume of methanol; proteins were then separated by centrifugation at 1200× g and 4 °C for 15 min, and the supernatant was used for instrumental analysis.
# (§6) Concentrations–time data were tabulated and processed using MonolixSuite™ 2024R1 (Lixoft®, Paris, France). […]
# [5] = Population PK model of rutin after i.v. administration (two-compartment, first-order elimination); assay type: in vivo, New Zealand White rabbits
# Procedure: PopPK analysis was performed using the Monolix® module of the MonolixSuite™. Two models were established, one for rutin after i.v. administration of the treatments, and one for Quer, produced by deconjugation of Q3OG and Q3OS, after p.o. administration of the treatments. Structural models with one or two compartments and first-order elimination were assessed, incorporating a double first-order absorption for p.o. experiments. An analysis of covariate was conducted, using the source of rutin as categorical covariate (pure compound or extract), which was incorporated into the model if statistically significant (p < 0.05 for Pearson’s and Wald tests with stochastic approximation). Correlations between random effects of the parameters were also examined and included in the model when significant (p < 0.05 for t-test). The final model, along with the residual error model, was chosen based on criteria including individual fit plots, Akaike’s information criteria (AIC) values, observation-versus-prediction plot analysis, precision of estimated parameters, and evaluation of residual distribution. The variability on fixed-effect model parameters was described by Equation (4):(4) Pi=Ppop+β+η(i,p), where Pi is the value of the individual PK parameter, Ppop is the value of the population PK parameter, β represents the variability due to the covariate extract if significant, and η is the individual deviation with respect to the population. Models were parametrized in micro-constants, i.e., elimination rate constant (k), distribution rate constant from compartment 1 to compartment 2 (k12), and distribution rate constant from compartment 2 to compartment 1 (k21). When necessary, Cl was calculated as follows: (5) Cl=k×V, where V is the volume of distribution of first compartment. The model was internally validated through the visual predictive check (VPC) with 1000 simulated data points. Validation of structural, variability, and covariate models was considered achieved if the observed percentiles remained within the corresponding prediction intervals estimated across all simulated data and computed with a level of 90%. In addition, the parameter uncertainty was assayed by bootstrap analysis using 1000 runs. The model was considered stable, robust, and accurate if the mean parameters of the model were close to those estimated via bootstrap and fell within the 95% confidence interval (CI 95%).
# [6] = Noncompartmental PK of rutin after oral administration of pure rutin or P. peruviana extract; assay type: in vivo, New Zealand White rabbits
# Procedure: as §1, §2, §3, §4, §5, §6
# [7] = male, New Zealand White, rabbit, plasma, iv, rutin, pure rutin 0.37 mg/kg, extract equivalent to 1.48 mg/kg of rutin, NCA, mean ± SD, n = 5
# [8] = rutin, i.v., pure rutin 0.37 mg/kg, extract equivalent to 1.48 mg/kg of rutin, NCA, mean ± SD, n = 5
# [9] = male, New Zealand White, rabbit, plasma, po, rutin, pure rutin 100 mg/kg, extract equivalent to 7.4 mg/kg of rutin, NCA, mean ± SD, n = 5
# [10] = male, New Zealand White, rabbit, po, rutin in plasma, pure rutin 100 mg/kg, extract equivalent to 7.4 mg/kg of rutin, NCA, mean ± SD, n = 5
# [11] = rutin, p.o., pure rutin 100 mg/kg, extract equivalent to 7.4 mg/kg of rutin, NCA, mean ± SD, n = 5
smiles,measurement,setting,value
"C[C@@H]1O[C@@H](OC[C@H]2O[C@@H](Oc3c(-c4ccc(O)c(O)c4)oc4cc(O)cc(O)c4c3=O)[C@H](O)[C@@H](O)[C@@H]2O)[C@H](O)[C@H](O)[C@H]1O [Pure Rutin, quercetin-3-O-rutinoside]",Biopharmaceutical Classification System class,[1],Class IV
same,"Cl, rat parameter",[2],0.031 L/h
same,"V, rat parameter",[2],0.024 L
same,"V, human parameter (experimental b)","[3]; 70 kg, b exponent from the data",1.410 L
same,"Cl, human parameter (theoretical b)","[3]; 70 kg, theoretical b 0.75",2.323 L/h
same,"V, human parameter (theoretical b)","[3]; 70 kg, theoretical b 1.0",3.988 L
same,"Cl, a coefficient of allometric scaling","[3]; Y = a × W^b, rats and rabbits",0.096
same,"Cl, b exponent of allometric scaling","[3]; Y = a × W^b, rats and rabbits",0.9
same,"V, a coefficient of allometric scaling","[3]; Y = a × W^b, rats and rabbits",0.057
same,"V, b exponent of allometric scaling","[3]; Y = a × W^b, rats and rabbits",0.8
same,clearance,"[3]; human, 70 kg, b exponent from the data, read-out: Cl, human parameter (experimental b) (converted)",89.8 mL/min
same,time post-dosage up to which rutin was quantified,[4]; i.v.,up to 6 h
same,"rutin plasma level, upper end of quantified range","[4]; i.v., mean ± SEM",4960 ± 340 ng/mL
same,AUC(0-inf),"[4]; male, New Zealand White, rabbit, iv, rutin in plasma, pure rutin 0.37 mg/kg, extract equivalent to 1.48 mg/kg of rutin, NCA, mean ± SD, n = 5",4740 ± 814 ng·h/mL
same,Vd,"[4]; male, New Zealand White, rabbit, plasma, iv, 0.37 mg/kg, rutin, i.v., pure rutin 0.37 mg/kg, extract equivalent to 1.48 mg/kg of rutin, NCA, mean ± SD, n = 5, read-out: Vss",0.29 ± 0.053 L/kg
same,Vd,"[4]; male, New Zealand White, rabbit, plasma, iv, 0.37 mg/kg, rutin, i.v., pure rutin 0.37 mg/kg, extract equivalent to 1.48 mg/kg of rutin, NCA, mean ± SD, n = 5, read-out: Vz",0.084 ± 0.028 L/kg
same,concentration at 6 h,"[4]; male, New Zealand White, rabbit, plasma, iv, 0.37 mg/kg, i.v., mean ± SEM, at last quantified time, read-out: rutin plasma level, lower end of quantified range",105 ± 24 ng/mL
same,half-life,"[4]; male, New Zealand White, rabbit, plasma, iv, rutin, i.v., pure rutin 0.37 mg/kg, extract equivalent to 1.48 mg/kg of rutin, NCA, mean ± SD, n = 5, read-out: t1/2 (terminal half-life) (converted)",0.79 ± 0.381 h
same,k el,"[4]; male, New Zealand White, rabbit, plasma, iv, rutin, i.v., pure rutin 0.37 mg/kg, extract equivalent to 1.48 mg/kg of rutin, NCA, mean ± SD, n = 5, read-out: λz (converted)",0.000294 s⁻¹
same,MRT,[4]; [7],3.63 ± 0.163 h
same,clearance,[4]; [7],1.32 mL/min/kg
same,Cp^0 (plasma concentration at zero time),"[4]; rutin in plasma, i.v., pure rutin 0.37 mg/kg, extract equivalent to 1.48 mg/kg of rutin, NCA, mean ± SD, n = 5",4960.02 ± 760.234 ng/mL
same,AUC0–∞/dose,[4]; [8],12.90 ± 2.214 h/L/kg
same,Cp^0/dose,[4]; [8],13.49 ± 2.068 L⁻¹ kg⁻¹
same,clearance,"[5]; New Zealand White, rabbit, plasma, intravenous, 0.37 mg/kg, popPK individual parameters, Cl = k × V, per animal, read-out: Cl, rabbit parameter (converted)",3.13 mL/min
same,"k12 (distribution rate constant compartment 1 to 2), population value","[5]; i.v., popPK",3.666 h⁻¹
same,"k21 (distribution rate constant compartment 2 to 1), population value","[5]; i.v., popPK, no extract covariate",3.777 h⁻¹
same,Vd,"[5]; male, New Zealand White, rabbit, plasma, iv, popPK, read-out: V (volume of distribution of first compartment), population value",0.048 L/kg
same,k el,"[5]; male, New Zealand White, rabbit, plasma, iv, popPK, read-out: k (first-order elimination rate constant), population value (converted)",0.000534 s⁻¹
same,"V, rabbit parameter","[5]; popPK individual parameters, per animal",0.096 L
same,bioavailability,"[6]; male, New Zealand White, rabbit, plasma, po, p.o. vs i.v., pure rutin 100 mg/kg, extract equivalent to 7.4 mg/kg of rutin, read-out: F (absolute bioavailability of rutin)",0.6%
same,Vd/F,"[6]; male, New Zealand White, rabbit, plasma, po, rutin, p.o., pure rutin 100 mg/kg, extract equivalent to 7.4 mg/kg of rutin, NCA, mean ± SD, n = 5, read-out: Vz/F",59.1 ± 11.4 L/kg
same,k el,"[6]; male, New Zealand White, rabbit, plasma, po, rutin, p.o., pure rutin 100 mg/kg, extract equivalent to 7.4 mg/kg of rutin, NCA, mean ± SD, n = 5, read-out: λz (converted)",6.5e-05 s⁻¹
same,CL/F,[6]; [9],226 mL/min/kg
same,MRT,[6]; [9],11.8 ± 0.916 h
same,AUC(0-inf),[6]; [10],7790 ± 2110 ng·h/mL
same,Cmax,[6]; [10],1170 ± 371 ng/mL
same,Tmax,[6]; [10],0.75 h
same,time of second peak of rutin plasma concentration (double peaks),"[6]; p.o., Cmax here for the extract",4.0 h
same,time of first peak of rutin plasma concentration (double peaks),"[6]; p.o., Cmax here for the pure compound",0.75 h
same,AUC0–∞/dose,[6]; [11],0.078 ± 0.021 h/L/kg
same,Cmax/dose,[6]; [11],0.012 ± 0.004 L⁻¹ kg⁻¹
